According to ChEMBL document CHEMBL1152194, “Substituent control of DNA binding modes in a series of chalcogenoxanthylium photosensitizers as determined by isothermal titration calorimetry and topoisomerase I DNA unwinding assay” (Bioorg Med Chem, 2008):
One block for each compound: values may come before it.

Tests used:
[1] = target: T1, DNA topoisomerase 1 (Homo sapiens) (UniProt P11387); assay: Inhibition of human DNA topoisomerase 1-induced unwinding activity using Escherichia coli pUC19 DNA assessed as bound compound per nucleotide pair at 24 uM
T1 sequence (whole entry): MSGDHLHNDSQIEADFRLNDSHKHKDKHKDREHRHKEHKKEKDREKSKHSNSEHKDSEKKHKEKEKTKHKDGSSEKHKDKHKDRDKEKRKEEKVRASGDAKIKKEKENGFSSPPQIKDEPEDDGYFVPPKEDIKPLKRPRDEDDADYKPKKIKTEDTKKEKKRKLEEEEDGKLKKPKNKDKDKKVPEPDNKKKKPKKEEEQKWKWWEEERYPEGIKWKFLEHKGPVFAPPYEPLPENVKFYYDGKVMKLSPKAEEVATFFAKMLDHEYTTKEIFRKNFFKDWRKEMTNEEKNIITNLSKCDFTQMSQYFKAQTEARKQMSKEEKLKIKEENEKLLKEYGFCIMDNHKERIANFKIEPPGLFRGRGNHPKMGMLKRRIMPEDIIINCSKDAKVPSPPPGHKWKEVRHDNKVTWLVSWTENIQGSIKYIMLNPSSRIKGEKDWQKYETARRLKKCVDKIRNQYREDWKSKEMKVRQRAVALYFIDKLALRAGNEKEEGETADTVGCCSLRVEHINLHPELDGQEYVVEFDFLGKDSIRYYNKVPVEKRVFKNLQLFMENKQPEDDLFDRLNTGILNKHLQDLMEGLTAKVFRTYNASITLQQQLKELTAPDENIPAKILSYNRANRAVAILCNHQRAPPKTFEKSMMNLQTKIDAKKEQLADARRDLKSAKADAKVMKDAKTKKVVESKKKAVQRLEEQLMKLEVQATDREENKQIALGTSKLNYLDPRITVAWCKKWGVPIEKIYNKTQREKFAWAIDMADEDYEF

physchem = settings: octanol/water
DNA = assay: Binding affinity to ultrapure calf thymus DNA in MESOO buffer at pH 6.25 at 30 degC by isothermal titration calorimetry assay; assay type: nucleic-acid assay, Bos taurus
[2] = Selectivity for Kb of [poly(dAdT)]2 DNA to Kb of [poly(dCdG)]2 DNA

- Activity [1]: 0.9
Compound: CCN(CC)C(=O)c1sccc1-c1c2ccc(=[N+](C)C)cc-2sc2cc(N(C)C)ccc12

Compound: CN(C)c1ccc2c(-c3cccs3)c3ccc(=[N+](C)C)cc-3[se]c2c1
- logP (physchem): -0.31

Compound: CN(C)c1ccc2c(-c3cccs3)c3ccc(=[N+](C)C)cc-3[te]c2c1.F[P-](F)(F)(F)(F)F
- Kd (DNA): 2.1 ×10⁶ /M

Compound: CN(C)c1ccc2c(-c3ccccc3)c3ccc(=[N+](C)C)cc-3[se]c2c1
- Ratio pKb [2]: 3
- logP (physchem): 0.09
